# Reference: ChEMBL document CHEMBL2380197, “Discovery of ML326: The first sub-micromolar, selective M5 PAM” (Bioorg Med Chem Lett, 2013)
# Numbering of substitutions follows the chain as printed.
# Experiments:
# [1] = biological target: T1, Muscarinic acetylcholine receptor M2 (Homo sapiens, UniProt P08172); assay: Positive allosteric modulation of human muscarinic M2 receptor
# T1 sequence (P08172 whole entry): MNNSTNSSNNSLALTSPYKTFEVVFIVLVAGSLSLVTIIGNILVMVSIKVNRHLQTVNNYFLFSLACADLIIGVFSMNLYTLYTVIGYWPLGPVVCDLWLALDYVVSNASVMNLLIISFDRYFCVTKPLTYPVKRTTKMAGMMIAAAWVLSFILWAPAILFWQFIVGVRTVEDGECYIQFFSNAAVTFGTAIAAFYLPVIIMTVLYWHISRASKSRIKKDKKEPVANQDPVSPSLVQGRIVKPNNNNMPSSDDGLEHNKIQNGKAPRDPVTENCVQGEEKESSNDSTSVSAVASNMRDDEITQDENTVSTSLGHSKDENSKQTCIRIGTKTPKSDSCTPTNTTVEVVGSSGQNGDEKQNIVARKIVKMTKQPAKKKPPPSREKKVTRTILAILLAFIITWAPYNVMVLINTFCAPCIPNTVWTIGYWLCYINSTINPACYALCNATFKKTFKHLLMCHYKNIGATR
# [2] = biological target: T2, Muscarinic acetylcholine receptor M4 (Homo sapiens, UniProt P08173); assay: Positive allosteric modulation of human muscarinic M4 receptor
# T2 sequence (P08173 whole entry): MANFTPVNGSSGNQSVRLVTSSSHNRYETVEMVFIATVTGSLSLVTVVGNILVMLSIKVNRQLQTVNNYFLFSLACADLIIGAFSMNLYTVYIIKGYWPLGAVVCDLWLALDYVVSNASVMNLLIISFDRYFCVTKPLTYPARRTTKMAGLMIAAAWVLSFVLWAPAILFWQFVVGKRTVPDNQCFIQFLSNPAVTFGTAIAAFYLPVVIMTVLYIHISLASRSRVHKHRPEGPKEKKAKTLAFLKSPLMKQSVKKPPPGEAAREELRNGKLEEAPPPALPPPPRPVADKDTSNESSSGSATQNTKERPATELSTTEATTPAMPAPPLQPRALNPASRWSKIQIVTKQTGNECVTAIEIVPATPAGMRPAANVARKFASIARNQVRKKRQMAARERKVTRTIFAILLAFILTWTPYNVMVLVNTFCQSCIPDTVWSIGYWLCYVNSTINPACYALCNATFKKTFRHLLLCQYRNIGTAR
# [3] = biological target: Muscarinic acetylcholine receptor M3 (Homo sapiens, UniProt P20309); assay: Positive allosteric modulation of human muscarinic M3 receptor
# Muscarinic acetylcholine receptor M3 (Homo sapiens, UniProt P20309), sequence (P20309 whole entry): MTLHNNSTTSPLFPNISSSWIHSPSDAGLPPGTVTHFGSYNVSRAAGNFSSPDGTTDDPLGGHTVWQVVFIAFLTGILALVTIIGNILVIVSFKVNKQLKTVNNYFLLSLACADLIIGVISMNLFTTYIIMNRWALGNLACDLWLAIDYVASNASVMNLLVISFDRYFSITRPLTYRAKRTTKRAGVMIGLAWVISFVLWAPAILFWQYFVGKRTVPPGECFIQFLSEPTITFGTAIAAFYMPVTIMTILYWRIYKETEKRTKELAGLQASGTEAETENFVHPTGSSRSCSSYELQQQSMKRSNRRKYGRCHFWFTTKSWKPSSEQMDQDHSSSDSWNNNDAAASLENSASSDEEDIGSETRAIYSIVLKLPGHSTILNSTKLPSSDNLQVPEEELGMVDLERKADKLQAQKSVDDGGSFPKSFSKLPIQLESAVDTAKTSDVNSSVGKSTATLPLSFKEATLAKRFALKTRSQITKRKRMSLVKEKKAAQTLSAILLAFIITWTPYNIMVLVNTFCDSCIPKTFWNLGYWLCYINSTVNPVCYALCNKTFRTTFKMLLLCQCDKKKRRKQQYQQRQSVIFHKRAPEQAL
# [4] = biological target: T3, Muscarinic acetylcholine receptor M5 (Homo sapiens) (UniProt P08912); assay: Positive allosteric modulation of human muscarinic M5 receptor relative to acetylcholine
# T3 sequence (whole entry): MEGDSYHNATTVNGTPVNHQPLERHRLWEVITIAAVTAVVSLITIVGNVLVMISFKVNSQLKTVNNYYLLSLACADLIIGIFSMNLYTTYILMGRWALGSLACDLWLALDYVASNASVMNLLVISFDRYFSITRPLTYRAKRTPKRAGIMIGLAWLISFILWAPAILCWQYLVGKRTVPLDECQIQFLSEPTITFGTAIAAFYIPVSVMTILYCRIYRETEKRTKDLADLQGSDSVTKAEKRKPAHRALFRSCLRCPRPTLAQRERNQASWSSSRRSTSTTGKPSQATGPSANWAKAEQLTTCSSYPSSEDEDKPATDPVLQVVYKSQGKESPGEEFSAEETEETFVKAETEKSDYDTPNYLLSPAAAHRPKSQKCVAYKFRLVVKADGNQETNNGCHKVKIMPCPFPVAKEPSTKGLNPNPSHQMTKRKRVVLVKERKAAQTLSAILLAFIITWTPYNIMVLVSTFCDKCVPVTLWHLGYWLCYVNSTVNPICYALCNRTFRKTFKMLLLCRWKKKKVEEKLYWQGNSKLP
# [5] = biological target: T4, Muscarinic acetylcholine receptor M5 (Homo sapiens, UniProt P08912); assay: Positive allosteric modulation of human muscarinic M5 receptor
# T4 sequence (P08912 whole entry): T3 sequence (whole entry)
# [6] = biological target: T3, Muscarinic acetylcholine receptor M5 (Homo sapiens); assay: Positive allosteric modulation of human muscarinic M5 receptor assessed as fold shift of acetylcholine-induced response at 30 uM
# [7] = biological target: Muscarinic acetylcholine receptor M3 (Rattus norvegicus, UniProt P08483); assay: Positive allosteric modulation of rat muscarinic M3 receptor
# Muscarinic acetylcholine receptor M3 (Rattus norvegicus, UniProt P08483), sequence (P08483 whole entry): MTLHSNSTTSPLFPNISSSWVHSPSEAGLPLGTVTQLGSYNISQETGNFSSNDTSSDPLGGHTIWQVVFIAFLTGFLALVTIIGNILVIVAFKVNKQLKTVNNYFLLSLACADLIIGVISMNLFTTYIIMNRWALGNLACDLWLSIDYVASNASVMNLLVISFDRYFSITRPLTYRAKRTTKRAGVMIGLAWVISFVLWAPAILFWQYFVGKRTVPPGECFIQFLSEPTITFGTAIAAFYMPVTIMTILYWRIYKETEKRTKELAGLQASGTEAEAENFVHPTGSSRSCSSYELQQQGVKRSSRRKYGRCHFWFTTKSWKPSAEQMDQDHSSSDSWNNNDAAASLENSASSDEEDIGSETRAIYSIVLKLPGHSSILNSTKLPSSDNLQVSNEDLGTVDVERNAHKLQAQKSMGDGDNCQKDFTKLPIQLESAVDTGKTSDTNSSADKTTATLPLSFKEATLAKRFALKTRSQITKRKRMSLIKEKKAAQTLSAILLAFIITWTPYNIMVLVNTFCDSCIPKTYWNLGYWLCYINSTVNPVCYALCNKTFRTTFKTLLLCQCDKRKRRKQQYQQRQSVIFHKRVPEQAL
# [8] = biological target: T5, Muscarinic acetylcholine receptor M4 (Rattus norvegicus, UniProt P08485); assay: Positive allosteric modulation of rat muscarinic M4 receptor
# T5 sequence (P08485 whole entry): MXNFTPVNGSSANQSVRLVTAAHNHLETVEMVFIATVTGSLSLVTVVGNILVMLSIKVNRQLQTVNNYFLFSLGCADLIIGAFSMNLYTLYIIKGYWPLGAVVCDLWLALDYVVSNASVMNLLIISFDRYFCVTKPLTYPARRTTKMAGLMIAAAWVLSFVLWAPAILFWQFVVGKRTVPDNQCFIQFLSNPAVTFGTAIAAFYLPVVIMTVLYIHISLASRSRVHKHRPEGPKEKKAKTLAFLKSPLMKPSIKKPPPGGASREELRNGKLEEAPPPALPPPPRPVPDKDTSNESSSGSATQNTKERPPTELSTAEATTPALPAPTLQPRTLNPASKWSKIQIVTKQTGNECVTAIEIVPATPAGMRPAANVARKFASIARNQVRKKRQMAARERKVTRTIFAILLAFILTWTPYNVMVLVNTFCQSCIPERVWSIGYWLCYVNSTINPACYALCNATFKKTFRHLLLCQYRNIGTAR
# [9] = biological target: T6, Muscarinic acetylcholine receptor M1 (Homo sapiens, UniProt P11229); assay: Positive allosteric modulation of human muscarinic M1 receptor
# T6 sequence (P11229 whole entry): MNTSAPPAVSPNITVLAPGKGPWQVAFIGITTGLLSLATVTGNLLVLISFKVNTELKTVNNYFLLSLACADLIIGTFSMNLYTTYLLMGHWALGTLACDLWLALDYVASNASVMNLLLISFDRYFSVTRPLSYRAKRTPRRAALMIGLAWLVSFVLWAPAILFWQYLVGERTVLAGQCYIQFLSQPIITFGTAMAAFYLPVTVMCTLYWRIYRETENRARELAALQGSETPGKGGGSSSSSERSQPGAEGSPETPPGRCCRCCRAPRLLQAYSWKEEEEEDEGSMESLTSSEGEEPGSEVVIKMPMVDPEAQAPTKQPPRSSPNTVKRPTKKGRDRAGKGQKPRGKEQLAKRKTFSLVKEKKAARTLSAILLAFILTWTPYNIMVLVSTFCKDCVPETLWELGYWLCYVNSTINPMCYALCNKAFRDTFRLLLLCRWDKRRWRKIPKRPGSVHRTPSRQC
# [10] = biological target: T7, Muscarinic acetylcholine receptor M1 (Rattus norvegicus, UniProt P08482); assay: Positive allosteric modulation of rat muscarinic M1 receptor
# T7 sequence (P08482 whole entry): T6 sequence (P11229 whole entry) with A5V, T254S, P309S, R320K, A337G, I413V
# [11] = biological target: T8, Muscarinic acetylcholine receptor M5 (Rattus norvegicus) (UniProt P08911); assay: Positive allosteric modulation of rat muscarinic M5 receptor relative to acetylcholine
# T8 sequence (whole entry): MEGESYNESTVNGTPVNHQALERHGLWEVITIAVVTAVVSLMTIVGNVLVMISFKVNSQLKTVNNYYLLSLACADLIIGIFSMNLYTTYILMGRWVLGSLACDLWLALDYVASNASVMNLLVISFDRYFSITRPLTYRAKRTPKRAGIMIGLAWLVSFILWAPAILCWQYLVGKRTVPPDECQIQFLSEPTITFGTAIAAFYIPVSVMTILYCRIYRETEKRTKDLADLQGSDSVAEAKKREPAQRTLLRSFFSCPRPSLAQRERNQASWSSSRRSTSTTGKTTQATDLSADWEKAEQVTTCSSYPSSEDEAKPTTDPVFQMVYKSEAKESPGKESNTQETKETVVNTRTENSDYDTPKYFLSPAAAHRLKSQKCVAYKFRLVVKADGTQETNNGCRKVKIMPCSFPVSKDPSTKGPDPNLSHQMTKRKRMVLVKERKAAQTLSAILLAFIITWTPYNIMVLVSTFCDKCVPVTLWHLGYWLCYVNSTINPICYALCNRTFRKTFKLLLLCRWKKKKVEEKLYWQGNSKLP
# [12] = biological target: T9, Muscarinic acetylcholine receptor M2 (Rattus norvegicus, UniProt P10980); assay: Positive allosteric modulation of rat muscarinic M2 receptor
# T9 sequence (P10980 whole entry): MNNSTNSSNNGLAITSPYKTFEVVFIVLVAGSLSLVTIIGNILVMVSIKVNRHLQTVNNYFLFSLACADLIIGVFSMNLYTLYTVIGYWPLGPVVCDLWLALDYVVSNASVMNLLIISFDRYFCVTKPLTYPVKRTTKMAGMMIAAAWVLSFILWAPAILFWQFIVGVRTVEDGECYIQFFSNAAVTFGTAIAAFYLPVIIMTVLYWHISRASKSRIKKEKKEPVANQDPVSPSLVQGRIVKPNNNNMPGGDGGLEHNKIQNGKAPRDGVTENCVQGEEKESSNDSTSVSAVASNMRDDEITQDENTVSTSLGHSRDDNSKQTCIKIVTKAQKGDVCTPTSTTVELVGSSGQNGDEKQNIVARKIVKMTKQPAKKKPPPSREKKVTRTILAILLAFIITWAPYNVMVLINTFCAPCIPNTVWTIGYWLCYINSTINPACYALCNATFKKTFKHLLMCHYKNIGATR
# [13] = biological target: T3, Muscarinic acetylcholine receptor M5 (Homo sapiens); assay: Positive allosteric modulation of human muscarinic M5 receptor at 3 uM relative to acetylcholine
Structure (SMILES),EC50 [1] [µM],EC50 [2] [µM],EC50 [3] [µM],Emax [4] [%],EC50 [5] [µM],fold change (FC) [6],EC50 [9] [µM],other results
Cn1cc(-c2ccc(CN3C(=O)C(=O)c4ccccc43)c(F)c2)cn1,> 30,> 30,> 30,45,–,–,–,–
O=C1C(=O)N(CCOc2ccc(Cl)cc2)c2ccc(OC(F)(F)F)cc21,–,–,–,92,0.45,–,–,–
O=C1C(=O)N(CCOc2ccccc2)c2ccc(OC(F)(F)F)cc21,> 30,> 30,> 30,91,0.41,20,> 30,EC50 [7]: > 30 µM; EC50 [8]: > 30 µM; EC50 [10]: > 30 µM; fold change (FC) [11]: 20; EC50 [12]: > 30 µM
Cc1cccc2c1N(CCOc1ccccc1)C(=O)C2=O,–,–,–,–,–,–,–,Emax [13]: 31%
O=C1C(=O)N(Cc2ccc(Oc3cccc(F)n3)cc2)c2ccc(OC(F)(F)F)cc21,> 30,> 30,> 30,–,–,6,> 30,–
O=C1C(=O)N(Cc2ccc(Oc3ccccc3)cc2)c2ccc(OC(F)(F)F)cc21,> 30,> 30,> 30,–,–,5,> 30,–
COc1ccc(CN2C(=O)C(=O)c3cc(OC(F)(F)F)ccc32)cc1,> 30,> 30,> 30,–,–,14,> 30,fold change (FC) [11]: 20
COc1ccc(CN2C(=O)C(O)(C[N+](=O)[O-])c3cc(OC(F)(F)F)ccc32)cc1 (stereo not given),–,–,–,75,1.4,–,–,–
Cc1cccc(OCCN2C(=O)C(=O)c3cc(OC(F)(F)F)ccc32)c1,–,–,–,91,0.53,–,–,–
COc1ccc(OCCN2C(=O)C(=O)c3cc(OC(F)(F)F)ccc32)cc1,–,–,–,89,0.59,–,–,–
O=C1C(=O)N(CCOc2ccc(Oc3ccccc3)cc2)c2ccc(OC(F)(F)F)cc21,–,–,–,93,1.05,–,–,–
COc1ccc(CN2C(=O)C(O)(c3ccc(F)nc3)c3cc(OC(F)(F)F)ccc32)cc1 (stereo not given),–,–,–,74,2.2,–,–,–
